# In patent publication US20090324743A1, “PULMONARY DRUG DELIVERY” (UNIVERSITY OF STRATHCLYDE, priority 2008, published 2009):
# What was measured:
# [1] = after intravenous administration; cited from earlier work
# [2] = test system: B16 F0 cells; assay: In vivo lung cancer efficacy study, organ weights; parameters: species or system BALB/c mice; details: sacrificed day 14; for Lung weight: Table 9
# Protocol: BALB/c mice (n=8/treatment) were injected intravenously on day 0 with 1-5×10^5 B16 F0 cells which form metastatic lung and liver tumours in mice (Nakurmura et al., 2002). On day 7 mice were treated either by intravenous injection of 0.2 ml of the appropriate drug formulation or PBS pH 7.4/saline (controls) or by inhalation with the appropriate drug formulation or saline using the Buxco® nebulisation system. 0.5 ml of the appropriate formulation or saline was added to the nebuliser which was attached to a Volumatic™ Spacer (Allen and Hanbury, Uxbridge, Middlesex). After 1.5 mins of nebulisation the nebuliser was switched off and the mice were exposed to the resulting aerosol for a further 5 minutes. Mice were sacrificed on day 14, body weight and the weight of the spleen, liver, lungs and kidney assessed. Lung weight was taken as an indirect measure of tumour burden. In some cases mice were dosed on days 4, 7, 9 and 11. Tumours were easily visible as black areas on the surface of the lungs and liver.
# [3] = test system: B16-F0 cells; assay: Tumour development / liver metastases, organ weight and histology on day 21; assay type: in vivo, BALB/c male mice
# Protocol: A number of studies have been completed where mice were treated on day 7 (post-tumour induction) with different cisplatin formulations by inhalation and the effect on subsequent tumour burdens, based on organ weight or direct assessment of the number and size distribution of tumours, was assessed 14 days later. The lungs, liver and spleen were cut into longitudinal slices and the kidney bisected and placed in a tissue cassette. After routine processing in paraffin wax, […] sections were mounted on a glass slide, dewaxed in 100% xylene and serially rehydrated in graded ethanol to water. Sections were then stained with haematoxylin and eosin and examined by light microscopy. For each organ the number and size of tiny (unmeasurable), small, medium and large tumours was determined counted in one H&E section. The size of the largest tumour deposit was also noted. The dimensions used to characterise tumours was small (0.5 to 1.4 mm), medium (1.5 to 2.9 mm), or large (>3 mm largest dimension). The percentage of tiny tumours was calculated using the total number of tumours present in the section.
# [4] = Table 5, 0.5 mg/ml inhalation 6.5 mins on day 7
# [5] = Table 5, 4.44 mg/kg iv (0.2 ml of 0.5 mg/ml) on day 7
# [6] = Table 6 Expt 1, inhalation on days 4, 7, 9 and 11, cisplatin solution 0.5 mg/ml, processed cisplatin-NIV as prepared
# [7] = Table 6 Expt 2, inhalation day 7 only, 0.1 mg/ml
# [8] = Table 10, inhalation day 7, cisplatin solution 1 mg/ml, cisplatin-NIV 0.5 mg/ml
# [9] = Table 11, inhalation day 7, cisplatin solution 1 mg/ml, cisplatin-NIV 0.1 mg/ml
# [10] = Table 11, solution 1 mg/ml, NIV 0.1 mg/ml
# [11] = Table 11, solution 1 mg/ml, NIV 0.1 mg/ml, large >3 mm
# [12] = Table 11, solution 1 mg/ml, NIV 0.1 mg/ml, medium 1.5 to 2.9 mm
# [13] = Table 11, solution 1 mg/ml, NIV 0.1 mg/ml, small 0.5 to 1.4 mm
# [14] = Table 12 BALB/c male, inhalation day 7, cisplatin solution 1 mg/ml, cisplatin-NIV 0.5 mg/ml
# [15] = Table 12 BALB/c male, solution 1 mg/ml, NIV 0.5 mg/ml
structure (smiles),measurement,setting,value
"[NH2][Pt]([NH2])([Cl])[Cl] [Cisplatin solution, cisplatin]",Share of the dose that reaches the lungs,[1],0.1%
same,"Mean organ weight, Liver",[2]; [4],1.47 ± 0.05 g
same,"Mean organ weight, Lungs",[2]; [4],0.22 ± 0.01 g
same,"Mean organ weight, Liver",[2]; [5],1.44 ± 0.16 g
same,"Mean organ weight, Lungs",[2]; [5],0.42 ± 0.03 g
same,"Mean organ weight, Liver",[2]; [6],1.19 ± 0.07 g
same,"Mean organ weight, Lungs",[2]; [6],0.21 ± 0.01 g
same,"Mean organ weight, Liver",[2]; [7],1.30 ± 0.03 g
same,"Mean organ weight, Lungs",[2]; [7],0.21 ± 0.01 g
same,Lung weight,"[2]; Female mice, inhalation day 7, 1 mg/ml",0.19 ± 0.01
same,Lung weight,"[2]; Male mice, inhalation day 7, 0.5 mg/ml",0.23 ± 0.02
same,"% animals with visible metastases, Liver",[3]; [8],(100%)
same,"% animals with visible metastases, Lung",[3]; [8],(100%)
same,"Mean weight, Liver",[3]; [8],1.53 ± 0.03 g
same,"Mean weight, Lung",[3]; [8],0.20 ± 0.01 g
same,Liver Weight,[3]; [9],1.65 ± 0.10
same,"Lungs Histology, percentage of tiny tumours",[3]; [9],Tiny 60%
same,Lungs Weight,[3]; [9],0.22 ± 0.01
same,"Liver Histology, D largest tumour mass, breadth",[3]; [10],1.6 ± 0.43
same,"Liver Histology, D largest tumour mass, length",[3]; [10],D 2.38
same,"Lungs Histology, D largest tumour mass, breadth",[3]; [10],1.19 ± 0.23
same,"Lungs Histology, D largest tumour mass, length",[3]; [10],D 1.4 ± 0.37 ×
same,"Liver Histology, number of large tumours (L)",[3]; [11],L 3.8 ± 2.15
same,"Lungs Histology, number of large tumours (L)",[3]; [11],L 0.40 ± 0.24
same,"Liver Histology, number of medium tumours (M)",[3]; [12],M 2.2 ± 1.56
same,"Lungs Histology, number of medium tumours (M)",[3]; [12],M 1.0 ± 0.6
same,"Liver Histology, number of small tumours (S)",[3]; [13],S 0.4 ± 0.24
same,"Lungs Histology, number of small tumours (S)",[3]; [13],S 2.5 ± 0.43
same,Liver Weight,[3]; [14],1.74 ± 0.05
same,Lungs Weight,[3]; [14],0.22 ± 0.02
same,"Liver Tumours, D largest tumour mass, breadth",[3]; [15],2.3 ± 0.70
same,"Liver Tumours, D largest tumour mass, length",[3]; [15],D 2.63 ± 0.71 ×
same,"Liver Tumours, number large (L)",[3]; [15],L 2.5 ± 1.50
same,"Liver Tumours, number medium (M)",[3]; [15],M 2.0 ± 1.41
same,"Liver Tumours, number small (S)",[3]; [15],S 3.5 ± 1.32
same,"Liver Tumours, percentage of tiny tumours",[3]; [15],Tiny 0%
same,"Lungs Tumours, D largest tumour mass, breadth",[3]; [15],1.08 ± 0.15
same,"Lungs Tumours, D largest tumour mass, length",[3]; [15],D 1.45 ± 0.13 ×
same,"Lungs Tumours, number large (L)",[3]; [15],L 0
same,"Lungs Tumours, number medium (M)",[3]; [15],M 0.5 ± 0.29
same,"Lungs Tumours, number small (S)",[3]; [15],S 7.75 ± 1.11
